These results are taken from article PMC2944077, “Placental Transfer of Conjugated Bisphenol A and Subsequent Reactivation in the Rat Fetus” (Environmental Health Perspectives, 2010).

Data set [1] can be described thus: Uterine perfusion of pregnant rats with glucuronide substrate; distribution in maternal-placental-fetal unit. The data set is classed as in vivo, rat. The settings on record: for Amount of substrate (glucuronide) detected in perfusate (maternal side): 2 μM substrate 20 min (120 nmol total) then 70 min without substrate. An excerpt:
Additional details of the surgical procedure are available in the Supplemental Material (doi:10.1289/ehp.0901575). In this perfusion system, the perfusate pumped into the abdominal aorta is circulated through one uterine artery– placenta–fetus–uterine vein unit and drips from the drain tube inserted in the caudal vein. After the perfusion, dams and fetuses were euthanized by incision of the caudal vena cava under anesthesia and tissues were collected.
We used modified Krebs-Ringer’s buffer (mKRB; 126 mM NaCl, 3 mM KCl, 1.2 mM KH2PO4, 1.3 mM MgSO4, 2.4 mM CaCl2, 10 mM glucose, 26 mM NaHCO3, 2.5% dextran from Leuconostoc mesenteroides, and 3% Dextran 70) as the perfusate. The perfusate was pumped at a constant rate of 3 mL/min. First, we perfused four animals in a preliminary group with 10 μM BPA-GA for 20 min to determine whether BPA-GA is transferred into the fetus across the placenta. In this group, we performed a preliminary perfusion with mKRB for 5 min to wash away blood, followed by 20 min inflow of mKRB containing 10 μM BPA-GA. After the perfusion, the fetus and amniotic fluid were collected.
To elucidate the kinetics of perfused BPA-GA, we used another group of four animals to compare the amount of BPA-GA in maternal veins with that in fetal tissue. After preliminary perfusion with mKRB for 5 min, pregnant rats were perfused with mKRB containing 2 μM BPA-GA for 20 min. Then, mKRB without BPA-GA was perfused for 70 min (a total of 90 min). From the beginning of the BPA-GA perfusion, the perfusate that drained from the caudal vena cava was collected from each animal at 5-min intervals for 90 min. At the end of perfusate collection, the fetus, amnion, amniotic fluid, uterus, and placenta were collected. We also performed a control study using 1-naphthol-glucuronide (1-NA-GA; Nacalai Tesque Inc., Kyoto, Japan) as the substrate. Four pregnant rats were used in each perfusion group. […]
Perfusates collected from the caudal vena cava were collected after uterine perfusion and prepared for HPLC and LC/TOF-MS analysis. Each perfusate sample was mixed with a 4-fold volume of acetonitrile and centrifuged at 13,000 rpm for 5 min at 4°C; each supernatant was then analyzed by HPLC.
To prepare tissues for HPLC and LC/TOF-MS analysis, we first added each sample to 0.3 mL methanol; the sample was homogenized and then sonicated for 5 min. The products were centrifuged at 13,000 rpm for 5 min at 4°C, and the supernatants were concentrated by solid-phase extraction using an Oasis HLB Plus cartridge (Waters Corp., Milford, MA, USA). The extracts were then analyzed by HPLC.
We used an HPLC system (Tosoh Corp., Tokyo, Japan) that consisted of a dual pump (DP-8020), a fluorescent photometer (FS-8020), and a column oven (CO-8020). Samples were separated at 40°C using a reverse-phase column (Unison UK-C18; Imtakt Corp., Kyoto, Japan) at a flow rate of 1.0 mL/min under a linear gradient of solution A (methanol/water = 24/76 vol/vol with 10 mM ammonium acetate) and solution B (methanol) for 20 min. BPA-GA was detected at excitation/emission of 275/308 nm and 1-NA-GA was detected at excitation/emission of 283/336 nm. The results were recorded using LC-8020 integration software (Tosoh Corp.); the elution peaks of BPA and BPA-GA were noted and the concentrations compared with the standards.
LC/TOF-MS was performed using the HPLC system described above and LCT premier XE (Waters Corp.). The flow rate of HPLC was 0.3 mL/min, and BPA-GA was monitored at m/z 403–404 by TOF-MS. In the present study, the limits of detection of BPA and BPA-GA in LC/TOF-MS were both 20 pmol/mL (data not shown).

Data set [2] concerns CD-1 mice. Details: method as in Timms et al. 2005. The settings on record: 10 μg/kg BPA/day; ref Timms et al. 2005; cited from earlier work.
On the set-up of data set [3]: method as in Krishnan et al. 1993; Nagel et al. 1997. The following applies: in vivo and in vitro; ref Krishnan et al. 1993; Nagel et al. 1997; cited from earlier work.
The subject of data set [4] is UGT. Kind of data set: UGT enzyme analysis using hepatic microsomes. Type of data set: in vitro ADME, rat. An excerpt: We examined UGT enzymatic activity using hepatic microsomes. We prepared the microsomes from rat liver and performed UGT enzyme analysis as described previously by [Daidoji et al (2006)]. See the Supplemental Material (doi:10.1289/ehp.0901575) for details.
Figure 6 Metabolism of BPA-GA in the fetus. Abbreviations: H, fetal heart; L, fetal liver; ML, maternal liver; P, placenta. (A) Time course showing concentration of deconjugated BPA (mean ± SE) in the extract of cultured fetal liver and heart cells (see “Materials and Methods” for details; n = 5). (B) Expression of β-Gase in the fetal liver and heart on GD18.5 by RT-PCR. (C) Expression of UGT isoforms in ML, P, L, and […] determined by RT-PCR. […] Values shown are the concentration (mean ± SE) of glucuronide conjugates in microsome protein (nmol/μg) after 30-min reaction time (n = 5).

For data set [5] the following is noted: oral 10 mg/kg BPA to GD16.0 rat mothers; ref Domoradzki et al. (2003); cited from earlier work.
Data set [6] deals with UGT. The settings on record: GD19.0; ref Matsumoto et al. 2002; cited from earlier work.
Data set [7] has as its system fetal heart cells. Kind of data set: Incubation of fetal primary cell cultures with BPA-GA (deconjugation). Type of data set: in vitro ADME, rat. The following applies: 25 μM BPA-GA, 37°C, 10-120 min, GD18.5. On the procedure:
(§1) Fetal liver and heart tissues, collected on GD18.5, were washed twice with cold phosphate-buffered saline (PBS). Tissues for two fetuses were combined in one tube and then minced in cold PBS and centrifuged for 5 min at 100 × g at 4°C. After removing the supernatant, the pellets were resuspended in 5 mL William’s medium (Sigma-Aldrich, Inc., St. Louis, MO, USA) containing collagenase (350 U; Wako Pure Chemical Industries, Ltd., Osaka, Japan) and DNase I (375 U; Roche Diagnostics, Basel, Switzerland) and incubated for 30 min at 37°C. After the incubation, samples were centrifuged for 5 min at 100 × g at 4°C, and the supernatants were removed. The remaining cells, which had been isolated from two fetuses, were resuspended in 200 μL William’s medium with or without 25 μM BPA-GA and incubated at 37°C for 10, 30, 60, or 120 min. At each time point, cells and medium were pooled and extracts were prepared for HPLC as described above, by adding the same volume of methanol. All experiments were repeated five times. Values express the mean ± SE.

Data set [8] deals with fetal liver cells. Described as above. The data set is classed as in vitro ADME, rat. The following applies: 25 μM BPA-GA, 37°C, 10-120 min, GD18.5. On the procedure:
as §1

Data set [9] has as its system placental trophoblast primary cell culture. Kind of data set: Deconjugation of BPA-GA in placental trophoblast primary cell culture. The data set is classed as in vitro ADME, rat. The following applies: data not shown. The method, then: After co-incubation with BPA-GA, we detected deconjugated BPA in fetal liver and to a small degree in fetal heart (Figure 6A). We observed β-Gase expression in both tissues (Figure 6B). […] The difference in deconjugation rates among tissues in the present study may reflect uptake into cells via transporters rather than through β-Gase expression. Another possibility is that BPA-GA is deconjugated in the placenta and then resultant BPA is transferred into the fetus by passive diffusion. Therefore, we also examined deconjugation of BPA-GA in placental trophoblast primary cell culture. […] The possibility of transfer of placental deconjugated BPA could not be excluded completely in this experiment. Further work is required to examine the tissue-specific deconjugation of BPA-GA and the possibility of BPA transfer.

Details of data set [10]: method as in Matthews et al. 2001. The following applies: ref Matthews et al. 2001; cited from earlier work.
[11] abbreviates: 2 μM substrate 20 min then 70 min without substrate, GD18.5, mean ± SD, n = 4.

As for `O=C(O)[C@H]1O[C@@H](Oc2cccc3ccccc23)[C@H](O)[C@@H](O)[C@@H]1O` [1-NA-GA, 1-naphthol-glucuronide, reference compound], the “Amount of substrate (glucuronide) detected in perfusate (maternal side)” value in [1] (GD18.5, mean ± SD, n = 4) came out at 111.77 ± 2.58 nmol.
In the case of `CC(C)(c1ccc(O)cc1)c1ccc(O)cc1` [BPA, Bisphenol A], the “Effect of maternal exposure on prostate and urethra in male fetuses” value in data set [2] was “induces abnormal development of the prostate and urethra”. For the same molecule, the Estrogenic activity entry in data set [3] was “weak estrogenic activity”. Further, in data set [4] (late pregnancy, in theory, from 20% of maternal and 70% pregnant/nonpregnant), the “Fetal UGT activity toward BPA relative to nonpregnant adult rats” value is reported as below 15%. Besides, the “UGT activities in fetal liver microsomes compared with those in the mother” value in data set [4] (liver microsomes, GD18.5) is “quite low”. In data set [4] (liver microsomes, GD18.5, 30-min reaction), the “Fetal UGT activity toward substrate relative to maternal microsomes” value is given as “about 20%”. Also, the “Concentration of BPA-GA in the fetus compared with that in maternal plasma” value in [5] was “approximately 0.1%”. Also, in [6], the “UGT activity toward BPA in pregnant rats relative to nonpregnant adult rats” value is on record as “about 70%”.
For the molecule `CC(C)(c1ccc(O)cc1)c1ccc(O[C@@H]2O[C@H](C(=O)O)[C@@H](O)[C@H](O)[C@H]2O)cc1` [BPA-GA, BPA-glucuronide], the “Share of the total amount of BPA-GA detected in the fetus” value in data set [1] (2 μM BPA-GA 20 min, total perfusion 90 min) is “about 0.09%”. The “BPA-GA in the collected perfusate after 70 min” value in data set [1] (2 μM BPA-GA 20 min then perfusion without BPA-GA, n = 4) is on record as “barely detected”. In addition, in [1] (GD18.5, mean ± SD, n = 4), the “Amount of substrate (glucuronide) detected in perfusate (maternal side)” value was found to be 113.10 ± 6.92 nmol. Also, in [1] (setting [11]), the “Amount of deconjugated substrate (BPA or 1NA) detected in amniotic fluid” value was 31.35 ± 4.52 pmol, the “Amount of deconjugated substrate (BPA or 1NA) detected in fetus” value was found to be 6.45 ± 1.45 pmol and the “Amount of substrate (glucuronide) detected in fetus” value is reported as 109.26 ± 36.75 pmol. For the same molecule, the “Deconjugated BPA in the fetus and amniotic fluid after preliminary perfusion” value in data set [1] (10 μM BPA-GA, 20-min inflow, HPLC) is recorded as “detected”. The “BPA-GA in the fetus and amniotic fluid after preliminary perfusion” value in data set [1] (10 μM BPA-GA, 20-min inflow, HPLC, confirmed by LC/TOF-MS) is on record as “detected”. The “Deconjugation of BPA-GA to BPA in fetal heart cells” value in [7] is reported as “to a much smaller degree”. Further, the “Deconjugation of BPA-GA to BPA in fetal liver cells” value in data set [8] is given as “in a time-dependent manner”. In [9], the “Deconjugation of BPA-GA in trophoblast cells” value is on record as “did not observe deconjugation”. Further, in data set [10], the “Biological activity of metabolite” value is “biologically inactive”.
